# Test results as given in patent publication US20250154145A1, “OXER1 ANTAGONISTS AND USES THEREOF” (Fairhaven Pharmaceuticals Ins., priority 2021, published 2025).
# Test system: neutrophils
# Test: Neutrophil calcium flux assay (5-OXO-ETE-stimulated, Indo-1 fluorescence)
# Type: cell-based
# Settings: 5-OXO-ETE-stimulated calcium flux
# Description: After isolation, neutrophils were resuspended in PBS without calcium and Magnesium (PBS −/−) at a concentration of 5×10^6 cells/ml. 2ul of Indo-1 (1 mM) were added per ml of cells. After incubation at 37° C. for 30 minutes, cells were washed twice in PBS −/− and resuspended at 5×10^6 cells/ml in assay buffer (HBSS 1× with calcium and magnesium and […]). In a 96-well Black optical clear bottom plate 100 μL of neutrophil were dispensed to each well. After incubation at 37° C. for 5 minutes, 50 μL of assay buffer or 3× antagonist were added and incubated for 5 min in a Tecan Spark plate reader (Tecan, Morrisville, NC). Baseline was measured for 30 sec (wavelength setup: excitation: 331 nm and emission:410 nm). When baseline is stable, 50p of 5-OXO-ETE at 200 nM (4×) or HBSS was added to appropriate wells. Fluorescence was measured every 5 seconds for 30 cycles. Results are expressed as Net fluorescence (FLU minus Background and injection peak). All data were analyzed using GraphPad Prism version 9 for Windows (GraphPad, San Diego, CA).
row,Structure (SMILES),IC50 [nM]
1,CC(CC(=O)O)CC(=O)n1c(CCCCCCc2cccc(Cl)c2)cc2ncc(Cl)cc21 (stereo not shown) [Compound I-305],< 100
2,CC(CC(=O)O)CC(=O)n1c(CCCCCCc2cccc(Cl)c2)cc2ncc(Cl)cc21 (stereo not shown) [Compound I-468],> 300
3,"CC(CC(=O)O)CC(=O)c1c(CCCCCC(O)c2cccc(C#N)c2)n(C)c2ncc(Cl)cc12 (single isomer, unassigned) [Compound I-306]",> 300
4,"CC(CC(=O)O)CC(=O)c1c(CCCCCC(O)c2cccc(C(=O)N(C)C)c2)n(C)c2ncc(C#N)cc12 (single isomer, unassigned) [Compound I-316]",> 300
5,"CC(CC(=O)O)CC(=O)c1c(CCCCCC(O)c2cccc(C#N)c2)n(C)c2ncc(Cl)cc12 (single isomer, unassigned) [Compound I-307]",< 100

# Same assay, conditions: Neutrophil, 5-OXO-ETE-stimulated calcium flux
row,Structure (SMILES),IC50 [nM]
1,CC(CC(=O)O)CC(=O)c1c(CCCCCC(O)c2ccc(F)c(Cl)c2)n(C)c2ncc(C#N)cc12 (stereo not shown) [Compound I-301],< 100
2,CC(CC(=O)O)CC(=O)c1c2cc(C#N)cnc2n(C)c1[C@H]1CC[C@H](COCc2cccc(Cl)c2)CC1 (stereo partly shown) [Compound I-401],> 300
3,C[C@@H](CC(=O)O)CC(=O)c1c(CCCCOCc2cccc(F)c2)n(C)c2ncc(C#N)cc12 [Compound I-294],> 300
4,CC[C@@H](CC(=O)O)CC(=O)c1c(CCCCOCc2ccccc2)n(C)c2ncc(C#N)cc12 [Compound I-439],> 300
5,Cn1c(CCCCOCc2cccc(Cl)c2)c(C(=O)N2CC[C@H](c3nnn[nH]3)C2)c2cc(C(F)(F)F)ccc21 [Compound I-188],100 to 300
6,Cn1c(CCCCCCc2cccc(Cl)c2)c(C(=O)N2CC[C@H](C(=O)NS(C)(=O)=O)C2)c2cc(C#N)cnc21 [Compound I-361],> 300
7,C[C@H](CC(=O)O)NC(=O)c1c(CCCCCCc2cccc(Cl)c2)n(C)c2ccc(Cl)cc12 [Compound I-237],> 300
8,C[C@H](CC(=O)O)CC(=O)c1c(CCCCCOc2ncccn2)n(C)c2ccc(Cl)cc12 [Compound I-130],> 300
9,CC(CC(=O)O)CC(=O)c1c(CCOCCNc2ccc(F)cc2)n(C)c2ccc(Cl)cc12 (stereo not shown) [Compound I-220],> 300
10,Cn1c(CCCCOCc2cccc(Cl)c2)c(C(=O)N2CCC[C@H](C(=O)O)C2)c2cc(C#N)cnc21 [Compound I-181],> 300
11,Cn1c(CCCCCCc2cccc(Cl)c2)c(C(=O)N2CC[C@H](C(=O)O)C2)c2cc(Cl)cnc21 [Compound I-147],> 300
12,CC(CC(=O)O)CC(=O)c1c(CCCCOCCc2ccccc2)n(C)c2ncc(C#N)cc12 (stereo not shown) [Compound I-424],> 300
13,Cn1c(CCCCCCC#CC2CC(F)(F)C2)c(C(=O)N2CC[C@H](c3noc(=O)[nH]3)C2)c2cc(Br)cnc21 [Compound I-457],> 300
14,C[C@@H](CC(=O)O)CC(=O)c1c(CCCCOCc2cccc(Cl)c2)n(C)c2ccc(C#N)cc12 [Compound I-469],100 to 300
15,CC(CC(=O)O)CC(=O)c1c(CCCCOCc2cncnc2)n(C)c2ncc(C#N)cc12 (stereo not shown) [Compound I-388],> 300
16,C[C@H](CC(=O)O)CC(=O)c1c(CCCCCNc2cccc(Cl)c2)n(C)c2ccc(Cl)cc12 [Compound I-79],< 100
17,C[C@@H](CC(=O)O)CC(=O)c1c(CCCCCCC#CC2COC2)n(C)c2ccc(Cl)cc12 [Compound I-333],> 300
18,CC(CC(=O)O)CC(=O)c1c(CCCCOCc2cccc(C#N)c2)n(C)c2c(F)cc(C#N)cc12 (stereo not shown) [Compound I-414],> 300
19,C[C@H](CC(=O)O)CC(=O)c1c(CCCCCOCc2ccccc2)n(C)c2ncc(C#N)cc12 [Compound I-422],100 to 300
20,C[C@@H](CC(=O)NS(C)(=O)=O)CC(=O)c1c(CCCCCCc2cccc(Cl)c2)n(C)c2ccc(Cl)cc12 [Compound I-15],> 300

row,Structure (SMILES),IC50 [nM]
1,C[C@H](CC(=O)O)CC(=O)c1c(CCCCOCc2ccccc2)n(C)c2ncc(Cl)cc12 [Compound I-99],100 to 300
2,CC(CCC(=O)c1c(CCCCCCc2cccc(Cl)c2)n(C)c2ccc(Cl)cc12)C(=O)O (stereo not shown) [Compound I-150],> 300
3,COc1nccc(COCCCCc2c(C(=O)CC(C)CC(=O)O)c3cc(Cl)cnc3n2C)n1 (stereo not shown) [Compound I-448],> 300
4,CC(CC(=O)O)CC(=O)c1c(CCCCCCCC#CC2CC(F)(F)C2)n(C)c2ncc(Cl)cc12 (stereo not shown) [Compound I-334],> 300
5,C[C@@H](CC(=O)O)CC(=O)c1c(CCCCCCc2cccc(Cl)c2)n(CCO)c2ncc(C#N)cc12 [Compound I-280],> 300
6,C[C@H](CC(=O)O)CC(=O)c1c(CCCCCCC#CC2CC(F)(F)C2)[nH]c2ccc(Cl)cc12 [Compound I-323],< 100
7,COc1cccc(CCCCC#Cc2c(C(=O)CC(C)CC(=O)O)c3cc(C#N)cnc3n2C)c1 (stereo not shown) [Compound I-419],> 300
8,Cn1c(CCCCCCC#CC2CC(F)(F)C2)c(C(=O)N2CC[C@](F)(C(=O)O)C2)c2cc(C#N)cnc21 [Compound I-344],> 300
9,Cn1c(CCCCCNc2cccc(Cl)c2)c(C(=O)N2CC[C@H](C(=O)O)C2)c2cc(Cl)cnc21 [Compound I-148],> 300
10,C[C@@H](CC(=O)O)CC(=O)c1c(CCCCO[C@H](C)c2ccccc2)n(C)c2ncc(C#N)cc12 [Compound I-433],> 300
11,C[C@H](CC(=O)O)CC(=O)c1c(CCCCOCc2cccc(Cl)c2)n(C)c2cnc(Cl)cc12 [Compound I-410],< 100
12,Cn1c(COCCCCC#CC2CC(F)(F)C2)c(C(=O)N2CC[C@H](C(=O)O)C2)c2cc(Cl)ccc21 [Compound I-349],> 300
13,C[C@H](CC(=O)NCC(=O)O)CC(=O)c1c(CCCCOCc2ccccc2)n(C)c2ncc(C#N)cc12 [Compound I-459],> 300
14,CC(CC(=O)O)CC(=O)c1c(CCCCCC(O)c2cccc(C#N)c2)n(C)c2ncc(Cl)cc12 (stereo not shown) [Compound I-286],< 100
15,C[C@@H](CC(=O)O)CC(=O)c1c(CCCCOCc2cccc(OC(F)(F)F)c2)n(C)c2ncc(C#N)cc12 [Compound I-390],> 300
16,CC(CC(=O)NS(C)(=O)=O)CC(=O)c1c(CCCCOCc2cccc(Cl)c2)n(C)c2ccc(C#N)cc12 (stereo not shown) [Compound I-300],> 300
17,[2H]C([2H])([2H])n1c(CCCCOCc2cccc(Cl)c2)c(C(=O)C[C@H](C)CC(=O)O)c2cc(C#N)ccc21 [Compound I-421],< 100
18,CC(=O)N(C)c1cccc(COCCCCc2c(C(=O)CC(C)CC(=O)O)c3cc(C#N)cnc3n2C)c1 (stereo not shown) [Compound I-299],100 to 300
19,CC(CC(=O)O)CC(=O)c1c(CCCCOCc2cccc(F)c2)n(C)c2ncc(C#N)cc12 (stereo not shown) [Compound I-231],< 100
20,C[C@@H](CC(=O)O)CC(=O)c1c(CCCCOCc2ccccc2)n(C)c2ncc(C#N)cc12 [Compound I-106],> 300

row,Structure (SMILES),IC50 [nM]
1,C[C@H](CC(=O)O)CC(=O)c1c(CCCCCNc2cnccn2)n(C)c2ccc(Cl)cc12 [Compound I-129],> 300
2,CC(CC(=O)O)CC(=O)c1c(CCCCOCc2cccc(Cl)c2)n(CCO)c2ncc(C#N)cc12 (stereo not shown) [Compound I-377],> 300
3,Cn1c(CCCCOCc2ccccc2)c(C(=O)CC(CC(=O)O)C(F)(F)F)c2cc(C#N)cnc21 (stereo not shown) [Compound I-440],> 300
4,C[C@H](CC(=O)O)CC(=O)c1c(CCCCOCc2ccc(F)cc2)n(C)c2ncc(Cl)cc12 [Compound I-215],> 300
5,C[C@@H](CC(=O)O)CC(=O)c1c(CCCCOCc2cccc(C#N)c2)n(C)c2ncc(C#N)cc12 [Compound I-384],> 300
6,CC(CC(=O)O)CC(=O)c1c(CCCCOCc2cccc(OC(F)(F)F)c2)n(C)c2cnc(Cl)cc12 (stereo not shown) [Compound I-412],< 100
7,C[C@H](CC(=O)O)CC(=O)c1c(COCCCCC#CC2CC(F)(F)C2)n(C)c2ccc(Cl)cc12 [Compound I-327],< 100
8,CC(CC(=O)O)CC(=O)c1c(CCCCCCC#CC2CC(F)(F)C2)n(C)c2ccc(Cl)cc12 (stereo not shown) [Compound I-278],< 100
9,Cn1c(CCCCCCc2cccc(Cl)c2)c(C(=O)N2CCC[C@@H](C(=O)O)C2)c2cc(Cl)ccc21 [Compound I-156],> 300
10,Cn1c(CCCCCC(O)c2cccc(Cl)c2)c(C(=O)N2CC[C@H](C(=O)O)C2)c2cc(Cl)cnc21 (stereo partly shown) [Compound I-173],> 300
11,Cn1c(CCCCCCC#CC2CC(F)(F)C2)c(C(=O)N2CC[C@H](C(=O)NS(=O)(=O)C(F)(F)F)C2)c2cc(C#N)cnc21 [Compound I-364],> 300
12,Cc1nc2c(cc1C#N)c(C(=O)CC(C)CC(=O)O)c(CCCCOCc1cccc(Cl)c1)n2C (stereo not shown) [Compound I-381],> 300
13,Cn1c(CCCCCCCC#CC2CC(F)(F)C2)c(C(=O)N2CC[C@H](C(=O)O)C2)c2cc(Br)cnc21 [Compound I-350],> 300
14,C[C@H](CC(=O)O)CC(=O)c1c(CCOCCOc2cccc(Cl)c2)n(C)c2ccc(Cl)cc12 [Compound I-64],100 to 300
15,COc1cccc(COCCCCc2c(C(=O)CC(C)CC(=O)O)c3cc(Cl)cnc3n2C)n1 (stereo not shown) [Compound I-447],> 300
16,C[C@@H](CC(=O)O)CC(=O)c1c(CCCCOCc2cccc(OC(F)(F)F)c2)n(C)c2cnccc12 [Compound I-409],> 300
17,C[C@H](CC(=O)N[C@@H](Cc1ccccc1)C(=O)O)CC(=O)c1c(CCCCOCc2ccccc2)n(C)c2ncc(C#N)cc12 [Compound I-467],> 300
18,C[C@H](CC(=O)O)CC(=O)c1c(CCCCOCc2cccc(C#N)c2)n(C)c2ncc(C#N)cc12 [Compound I-383],< 100
19,Cn1c(CCCCCCC#CC2CC(F)(F)C2)c(C(=O)N2CC[C@H](C(=O)O)C2)c2cc(Cl)ccc21 [Compound I-339],< 100
